Entries after “also recorded” stand apart in the source; their conditions may differ.

Holding throughout (assay type): cell-based, human
Data set [1] relates to RRM2. Description: Western blotting of RRM2 protein levels. As for the experimental part:
(§1) Transfection was performed as described in Example 4 in 6-well format. Proteins were isolated using RIPA buffer (50 mM Tris pH 8.0, 150 mM NaCL, 1% NP-40, 0.5% Sodium deoxycholate, 0.1% SDS), supplemented with Protease Inhibitor Cocktail (Sigma) and Halt™ Phosphatase Inhibitor Cocktail (Pierce/Thermo Scientific). Fifteen μg protein was loaded on a 12% Mini-PROTEAN® TGX™ Precast Gel (Bio-Rad), and proteins were transferred to Immun-Blot PVDF Membrane (Bio-Rad). Membranes were blocked in 5% milk or 5% BSA in TBS-T, and incubated O/N at 4° C. with primary antibodies against α-tubulin (1:5000), BRAF, pERK1/2, CDK4, RRM2 (all 1:1000), BCL-2 (1:500) (Santa Cruz), total-ERK1/2 (1:2000), BIRC5, AURKB (1:1000) (Cell Signaling), ERK1 (1:2000) (GeneTex). After incubation with appropriate secondary antibodies and western blot chemiluminescence substrate ECL (Pierce/Thermo Scientific), membranes were exposed to CL-XPosure Film (Pierce/Thermo Scientific).
(A western blot detects proteins with antibodies after separation by electrophoresis.)

The test system of data set [2] is phospho-ERK1/2. Kind of data set: Western immunoblotting of phospho-ERK1/2 protein levels. The note with it: Western blot. As to the method:
(§2) A375Hu cells were seeded in 6-well plates and transfected with different concentrations (10, 50 and 100 nM) of synthetic hsa-miR-129-5p or BRAF siRNA (100 nM) using RNAiMAX (7.5 μl/well). As control a scrambled miRNA and a non-targeting siRNA pool were included. Proteins were harvested 72 hrs post transfection using RIPA buffer supplemented with HALT™ Phosphatase Inhibitor (Thermo Scientific) and Protease Inhibitor Cocktail (Sigma). Fifteen μg protein was loaded on 7.5% TGX acrylamide gels (Bio-Rad) and subsequently transferred to PVDF membranes. The membranes were blocked in 5% milk in TBS-T and incubated O/N at 4° C. with primary antibodies to bRAF, phosphoERK1/2, CDK6, and tubulin (Santa Cruz). After incubation with secondary goat-anti-mouse antibodies (Santa Cruz), membranes were developed using ECL (Pierce).
as §2, with “(1, 10” for “(10, 50”, “hsa-miR-3157” for “hsa-miR-129-5p”, “bRAF, total ERK1/2,” for “bRAF,”, “CDK4, BCL2” for “CDK6,”
as §2, with “concentrations” for “concentrations (10, 50 and 100 nM)”, “vemurafenib (PLX-4032, 0.01, 0.1, 1 uM).” for “synthetic hsa-miR-129-5p or BRAF siRNA (100 nM) using RNAiMAX (7.5 μl/well). As control a scrambled miRNA and a non-targeting siRNA pool were included.”, “bRAF, total ERK1/2,” for “bRAF,”, “CDK4, BCL2” for “CDK6,”
(§3) A2058 cells were seeded in 6-well plates and transfected with different concentrations (1, 10 and 100 nM) of synthetic hsa-miR-3157-5p or BRAF siRNA using X-TremeGene (Roche, 15 μl/well). As control a scrambled miRNA was included. Proteins were harvested 72 hrs post transfection using RIPA buffer supplemented with HALT™ Phosphatase Inhibitor (Thermo Scientific) and Protease Inhibitor Cocktail (Sigma). Fifteen μg protein was loaded on 10% TGX acrylamide gels (Bio-Rad) and subsequently transferred to PVDF membranes. The membranes were blocked in 5% milk in TBS-T and incubated O/N at 4° C. with primary antibodies to bRAF, total ERK1/2, phosphoERK1/2, BCL2, CDK4 and tubulin (Santa Cruz). After incubation with secondary goat-anti-mouse antibodies (Santa Cruz), membranes were developed using ECL (Pierce).
Transfection was performed as described in Example 4 in 6-well format. Proteins were isolated using RIPA buffer (50 mM Tris pH 8.0, 150 mM NaCL, 1% NP-40, 0.5% Sodium deoxycholate, 0.1% SDS), supplemented with Protease Inhibitor Cocktail (Sigma) and Halt™ Phosphatase Inhibitor Cocktail (Pierce/Thermo Scientific). […]

Data set [3] concerns AURKB. Description: Western blotting of AURKB protein levels. As to the method:
as §1

Data set [4] relates to BIRC5. Description: Western blotting of BIRC5 protein levels. As for the experimental part: as §1
Data set [5] relates to CDK4. Description: Western immunoblotting of CDK4 protein levels. As to the method:
as §2, with “(1, 10” for “(10, 50”, “hsa-miR-3157” for “hsa-miR-129-5p”, “bRAF, total ERK1/2,” for “bRAF,”, “CDK4, BCL2” for “CDK6,”
as §2, with “concentrations” for “concentrations (10, 50 and 100 nM)”, “vemurafenib (PLX-4032, 0.01, 0.1, 1 uM).” for “synthetic hsa-miR-129-5p or BRAF siRNA (100 nM) using RNAiMAX (7.5 μl/well). As control a scrambled miRNA and a non-targeting siRNA pool were included.”, “bRAF, total ERK1/2,” for “bRAF,”, “CDK4, BCL2” for “CDK6,”
as §3, §1

[6] abbreviates: vemurafenib-resistant A2058, M249-AR4 and M376, 1 μM, 24 hrs (FIG. 14b).
Where [7] appears, read: vemurafenib-sensitive A375 and M249, 1 μM, 24 hrs (FIG. 14b).
The mark [8] stands for this setting: A375 cells, increasing concentrations of mimic (FIG. 12c).
Setting [9] is: A2058, M249, M249-AR4 and M376, increasing concentrations of mimic (FIG. 14a).

Take `CCCS(=O)(=O)Nc1ccc(F)c(C(=O)c2c[nH]c3ncc(-c4ccc(Cl)cc4)cc23)c1F` [Vemurafenib, N-(3-{[5-(4-chlorophenyl)-1H-pyrrolo[2,3-b]pyridin-3-yl]carbonyl}-2,4-difluorophenyl)propane-1-sulfonamide]: the RRM2 protein levels entry in data set [1] (setting [6]) is “protein levels similar to control-treated cells”; in data set [1] (setting [7]), “downregulated”. Also, the phospho-ERK1/2 protein levels result in data set [2] (A375Hu cells, 72 hrs) is given as “inhibits”; in data set [2] (A375Hu cells, 72 hrs, listed as PLX-4032), “down regulation”. For the same molecule, the AURKB protein levels entry is reported as “protein levels similar to control-treated cells” in data set [3] (setting [6]) and “downregulated” in data set [3] (setting [7]). Besides, the BIRC5 protein levels result in data set [4] (setting [6]) is given as “protein levels similar to control-treated cells”; in data set [4] (setting [7]) it was “downregulated”. For the same molecule, the CDK4 protein levels entry in data set [5] (A375Hu cells, 72 hrs, Western blot, listed as PLX-4032) was “not in reduction of CDK4 and BCL2 protein levels”.

Take “hsa-miR-3157-5p: mature miRNA mimic, SEQ ID NO 6 UUCAGCCAGGCUAGUGCAGUCU (listed as RNA, chemistry not given here)”: the RRM2 protein levels result in data set [1] (setting [8]) is “most pronounced”; in data set [1] (setting [9]) it was “strongly downregulated”. In addition, the phospho-ERK1/2 protein levels result in data set [2] (A375Hu cells, 72 hrs) is on record as “does not down-regulate; also recorded: not affected”; in data set [2] (A2058 cells (vemurafenib resistant), 72 hrs post transfection), “not down-regulated”. In addition, the AURKB protein levels entry in data set [3] (setting [8]) is “most pronounced”; in data set [3] (setting [9]), “strongly downregulated”. For the same molecule, the BIRC5 protein levels entry in data set [4] (setting [8]) is recorded as “most pronounced”; in data set [4] (setting [9]) it was “strong downregulation”. Also, the CDK4 protein levels result in data set [5] (A375Hu cells, 72 hrs, Western blot) is “significant reduction in CDK4 protein levels; also recorded: down-regulated”; in data set [5] (setting [8]) it was “strong reduction”; in data set [5] (A2058, increasing concentrations of mimic (FIG. 14a)), “mild effect”; in data set [5] (A2058 cells (vemurafenib resistant), 72 hrs post transfection, Western blot), “reduction; also recorded: down-regulated”; in data set [5] (M249-AR4, increasing concentrations of mimic (FIG. 14a)), “no effect”; in data set [5] (M249 and M376, increasing concentrations of mimic (FIG. 14a)), “strong downregulation”.

Source of the values: US10201556B2, “Combination for use in treating diseases or conditions associated with melanoma, or treating diseases or conditions associated with activated B-raf pathway” (InteRNA Technologies B.V., priority 2012, dated 2019).
